We go through nine molecules from patent publication US8114986B2, “Analogous compounds of 6-thioguanosine triphosphate, their use in medical fields and processes for their preparation” (Giuliani International Limited, priority 2005, dated 2012).

One data set deals with human CD4+ T Lymphocytes. Put plainly: Induction of apoptosis in CD3/CD28 costimulated T lymphocytes, annexin V / propidium iodide FACS. In kind it is cell-based. To be noted: for induction of apoptosis: 5 μM added at day 0, CD3/CD28 costimulated T lymphocytes; for induction of apoptosis / induction of apoptosis compared with azathioprine or 6-mercaptopurine mediated induction: 3, 4 or 5 days, FIGS. 2-4; for induction of apoptosis compared with azathioprine or 6-mercaptopurine mediated induction: 5 μM; for apoptosis induction: FIGS. 5 and 6, at least three experimental data sets, primary T cells of different donors. The method, then:
Human peripheral blood mononuclear cells (PBMC) from 4 buffycoats were isolated using Ficoll-Hypaque gradients. PBMC were further purified using CD4 monoclonal antibodies attached to immunomagnetic microbeads according to the protocol provided by the manufacturer (Miltenyi Biotec). […] Azathioprine, 6-Mercaptopurine, V1, V2, V3, V4 or V5 were added to the T cell cultures at day 0 at a final concentration of 5 μM. To determine induction of apoptosis in these T lymphocytes, cells were analyzed by FACS. For FACS analysis, apoptotic cells were detected by staining with annexin V and propidium iodide using the Annexin V FITC Apoptosis Detection Kit I (PharMingen). In brief, T cells were washed twice in PBS, and the pellet was resuspended in annexin V binding buffer (PharMingen) at a concentration of 10^6 cells per milliliter. Annexin V FITC and propidium iodide were added (5 μl of each per 10^5 cells), Samples were gently mixed and incubated for 15 minutes at room temperature in the dark before FACS analysis.
• Annexin-positive, propidium iodide-negative cells (black bars) present the rate of early apoptotic cells. Annexin-positive, propidium iodide-positive cells (white bars) present late apoptotic or necrotic cells. • Induction of apoptosis=(Rate of apoptotic cells after indicated treatment)−(Rate of apoptosis of untreated cells) • V1, V2 and V3 were tested in 4 independent experiments. V4 and V5 were tested in 2 independent experiments.

Another data set concerns caspase-3/7 in T cells. In words: Caspase-Glo 3/7 Assay in stimulated CD4+ T cells. In kind it is cell-based, human. To be noted: day three of culture; untreated cells = 100%; three experiments; FIG. 8. The method, then: FIG. 8: Caspase-graph: Luminescence value of untreated cells was defined as 100% Caspase activity. Due to their specific luminescence value the caspase activity of treated cells were calculated accordingly. Induction of Caspase activityx[%]=Caspase activityx[%]−Caspase activityuntreated[%]. Means±SEM (Standart Error of the Mean=Standard deviation/radical(n)) of three different experiments are presented.
In addition, an alternative method was performed for screening of group-D derivatives (FIG. 8). It was decided to analyse the activity of caspase-3/7 in T cells, which were treated with group-D derivatives. As compared to AnnexinV/PI staining this new method might have some advantages: • It is an easier protocol. Therefore there are fewer possibilities for individual errors. • Increased activity of caspase-3 is very specific for apoptosis. Therefore this method is very sensitive for the detection of apoptosis. There is no interfering influence of necrotic cells. • The measurement is done in duplicate. In this way there is an internal control.
The Caspase-Glo 3/7 Assay (Promega™) was used. This assay is based on a caspase dependent luminescent signal. Protocol: CD4^+ T cells were isolated from human blood by magnetic beads (Dynal). T lymphocytes were stimulated in complete RPMI-1640 medium (RPMI-1640+10% FCS+100 U/ml Penicillin/Streptomycin+3 mM L-Glutamin) for 3 days with coated antibodies to CD3 (0.04 μg/ml) and soluble CD28 antibodies (PharMingen™; 1 μg/ml) plus IL-2 (R & D Systems™, Wiesbaden, Germany; 40 U/ml) in 96-well plates. Cells were treated with different group-D derivatives or were left untreated. At day three of culture Caspase-3/7 Assay was performed. 25 μl of Caspase-Glo 3/7 reagent was added to each well. Probes were mixed gently for 2 minutes and incubated at room temperature for 30 minutes. Finally 100 μl of each probe were transferred to a white walled 96-well luminometer plate and analysed in a plate-reading luminometer. The added reagent contains a specific substrate of caspase-3 and caspase-7. Cleavage of this substrate by activated caspase-3 results in luciferase reaction. Luminescence is proportional to the amount of caspase activity present (FIG. 8)

The target in the next data set is Rac1 (Homo sapiens, UniProt P63000). Particulars: cited from earlier work.
The nature of a further data set: Solubility in water. In kind it is physicochemical.

With 2′,3′-EDA-6-Thio-GTP [05B-0], in the data set on human CD4+ T Lymphocytes, the induction of apoptosis result is given as “able to induce apoptosis”; the “induction of apoptosis compared with azathioprine or 6-mercaptopurine mediated induction” value was “more pronounced and appeared earlier”; the apoptosis induction entry is given as “strongest candidate drug for apoptosis induction”. Also, the “induction of caspase activity” value in the data set on caspase-3/7 in T cells is “very effective”. With `Nc1nc2c(ncn2[C@@H]2O[C@H](COP(=O)(O)OP(=O)(O)OP(=O)(O)O)[C@@H](O)[C@H]2O)c(=S)[nH]1` [6-Thio-GTP, 6-thioguanosine triphosphate], the apoptosis induction result in the data set with human CD4+ T Lymphocytes is “on average was not able to induce apoptosis”. Further, on Rac1, the “affinity to Rac1, fold less in comparison with GTP” value was 20 fold. Moreover, the “induction of caspase activity” value in the data set on caspase-3/7 in T cells is reported as “able to induce caspase activity”. `Cn1ccc(NC(=O)[C@@H]2OC3C(COP(=O)(O)OP(=O)(O)OP(=O)(O)O)OC(n4cnc5c(=S)[nH]c(N)nc54)C3O2)n1` (some centres unmarked) [06D-13]: the “induction of caspase activity” value in the data set with caspase-3/7 in T cells is on record as “promising”. Take `Cc1cc(CNC(=O)[C@@H]2OC3C(COP(=O)(O)OP(=O)(O)OP(=O)(O)O)OC(n4cnc5c(=S)[nH]c(N)nc54)C3O2)nn1C` (some centres unmarked) [06D-14]: the “induction of caspase activity” value in the data set on caspase-3/7 in T cells is “promising”. As to `NCCCCCCNc1nc2c(ncn2[C@@H]2O[C@H](CO)[C@@H](O)[C@H]2O)c(=O)[nH]1` [V2, N-2-(6″-Aminohexyl)-guanosine], the induction of apoptosis result in the data set on human CD4+ T Lymphocytes is listed as “not able to induce apoptosis”. For the molecule `CC(=O)NCCCCCCNc1nc(O)c2ncn([C@@H]3O[C@H](COC(C)=O)C(OC(C)=O)C3OC(C)=O)c2n1` (some centres unmarked) [V3, 2′,3′,5′,o-Triacetyl-N-2-(Acetyl-6″-aminohexyl)-guanosine], in the data set on human CD4+ T Lymphocytes, the induction of apoptosis entry is “not able to induce apoptosis”. For the same molecule, in “Solubility in water”, the solubility in water entry was “not soluble in water”. For `CC(=O)OC[C@H]1O[C@@H](n2cnc3c(S)nc(NCCCCCCNC(C)=S)nc32)C(OC(C)=O)C1OC(C)=O` (some centres unmarked) [V4, 2′,3′,5′-Triacetyl-N-2-(6″-thioacetamide-hexyl)-6-Thioguanosine] the same measures were “not able to induce apoptosis” and “not soluble in water”. Turning to Aspartate-2,3′-EDA-6-Thio-GTP [05B-1], the “induction of caspase activity” value in the data set on caspase-3/7 in T cells is listed as “less effective than 05B-0”.

With TAMRA-EDA-6-Thio-GTP [V5], in the data set with human CD4+ T Lymphocytes, the induction of apoptosis result is recorded as “able to induce apoptosis”; the “induction of apoptosis compared with azathioprine or 6-mercaptopurine mediated induction” value was “more pronounced and appeared earlier”.
